Experimental data published in US20240252506A1 (Hoffmann-La Roche Inc., priority 2021, published 2024).
In brackets after ≈: the same amount, converted by molar mass.

system: Escherichia coli ATCC 25922; assay: Minimal Inhibitory Concentration (MIC) determination, broth microdilution (CLSI M07-A10); assay type: cell-based; settings: Escherichia coli, ATCC25922, strain Escherichia coli ATCC 25922, 18-24 hours at 35±2° C., lowest concentration for complete growth inhibition (no visible growth), read-out: Escherichia coli growth inhibition MIC
In short: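 Broth microdilution per CLSI M07-A10; compounds in 2-fold serial dilutions; inoculum from 0.5 McFarland suspension diluted 1:200 in broth. Incubated 18-24 h at 35±2° C in ambient air; MIC (μg/mL) taken as lowest concentration giving no visible growth.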

First: N[C@@H](CO)c1nc2cc3c(c(F)c2o1)CC(CN1CCC2(CC1)CN(c1cnc4c(n1)NC(=O)CO4)C(=O)O2)C3 (stereo partly drawn) [Example 143, 6-[8-[[2-[(1S)-1-Amino-2-hydroxy-ethyl]-8-fluoro-6,7-dihydro-5H-cyclopenta[f][1,3]benzoxazol-6-yl]methyl]-2-oxo-1-oxa-3,8-diazaspiro[4.5]decan-3-yl]-4H-pyrazino[2,3-b][1,4]oxazin-3-one]
Second: C[C@H](C(=O)NCc1nc2cc3c(c(F)c2[nH]1)CC(CN1CCC2(CC1)CN(c1cnc4c(n1)NC(=O)CO4)C(=O)O2)C3)N(C)C (stereo partly shown) [Example 151]
The MIC of the first is 2-fold lower: 0.25 µg/mL (≈ 0.452 µM) for the first, 0.5 µg/mL (≈ 0.804 µM) for the second.

`O=C1COc2ccc(N3CC4(CCN(CC5Cc6cc7nc([C@@H]8C[C@@H](O)CN8)oc7c(F)c6C5)CC4)OC3=O)nc2N1` (stereo partly drawn) [Example 147, 6-[8-[[8-Fluoro-2-[(2S,4R)-4-hydroxypyrrolidin-2-yl]-6,7-dihydro-5H-cyclopenta[f][1,3]benzoxazol-6-yl]methyl]-2-oxo-1-oxa-3,8-diazaspiro[4.5]decan-3-yl]-4H-pyrido[3,2-b][1,4]oxazin-3-one] and `CNCC(=O)NCc1nc2cc3c(c(F)c2[nH]1)CC(CN1CCC2(CC1)CN(c1cnc4c(n1)NC(=O)CO4)C(=O)O2)C3.O=C(O)C(F)(F)F` (stereo not shown) [Example 160, N-[[8-fluoro-6-[[2-oxo-3-(3-oxo-4H-pyrazino[2,3-b][1,4]oxazin-6-yl)-1-oxa-3,8-diazaspiro[4.5]decan-8-yl]methyl]-1,5,6,7-tetrahydrocyclopenta[f]benzimidazol-2-yl]methyl]-2-(methylamino)acetamide; 2,2,2-trifluoroacetic acid] are the same in MIC: 0.5 µg/mL (≈ 0.864 µM) for the first, 0.5 µg/mL for the second.

`C[C@H](C(=O)NCCn1nnc2c(F)c3c(c(F)c21)CC(CN1CCC2(CC1)CN(c1cnc4c(n1)NC(=O)CO4)C(=O)O2)C3)N(C)C` (stereo partly drawn) [Example 149, (2R)—N-[2-[4,8-Difluoro-6-[[2-oxo-3-(3-oxo-4H-pyrazino[2,3-b][1,4]oxazin-6-yl)-1-oxa-3,8-diazaspiro[4.5]decan-8-yl]methyl]-6,7-dihydro-5H-cyclopenta[f]benzotriazol-1-yl]ethyl]-2-(dimethylamino)propanamide] and `C[C@H](C(=O)NCCn1nc2c(F)c3c(c(F)c2n1)CC(CN1CCC2(CC1)CN(c1cnc4c(n1)NC(=O)CO4)C(=O)O2)C3)N(C)C` [Example 150, (2R)-N[2-[4,8-difluoro-6-[[2-oxo-3-(3-oxo-4H-pyrazino[2,3-b][1,4]oxazin-6-yl)-1-oxa-3,8-diazaspiro[4.5]decan-8-yl]methyl]-6,7-dihydro-5H-cyclopenta[f]benzotriazol-2-yl]ethyl]-2-(dimethylamino)propanamide] are the same in MIC: 1 µg/mL (≈ 1.53 µM) for the first, 1 µg/mL (≈ 1.53 µM) for the second.

Going from `CC(=O)N(C)CCn1nc2c(F)c3c(c(F)c2n1)CC(CN1CCC2(CC1)CN(c1cnc4c(n1)NC(=O)CO4)C(=O)O2)C3` [Example 154, N-[2-[4,8-difluoro-6-[[2-oxo-3-(3-oxo-4H-pyrazino[2,3-b][1,4]oxazin-6-yl)-1-oxa-3,8-diazaspiro[4.5]decan-8-yl]methyl]-6,7-dihydro-5H-cyclopenta[f]benzotriazol-2-yl]ethyl]-N-methyl-acetamide] to `CN(C)CC(=O)N(C)CCn1nc2c(F)c3c(c(F)c2n1)CC(CN1CCC2(CC1)CN(c1cnc4c(n1)NC(=O)CO4)C(=O)O2)C3` [Example 155, N-[2-[4,8-difluoro-6-[[2-oxo-3-(3-oxo-4H-pyrazino[2,3-b][1,4]oxazin-6-yl)-1-oxa-3,8-diazaspiro[4.5]decan-8-yl]methyl]-6,7-dihydro-5H-cyclopenta[f]benzotriazol-2-yl]ethyl]-2-(dimethylamino)-N-methyl-acetamide], the MIC falls from 2 µg/mL (≈ 3.27 µM) to 1 µg/mL (≈ 1.53 µM) (2-fold).

`O=C1COc2ncc(N3CC4(CCN(CC5Cc6c(c(F)c7nn(CCNC(=O)[C@H]8CCCN8)nc7c6F)C5)CC4)OC3=O)nc2N1` [Example 158, (2R)—N-[2-[4,8-Difluoro-6-[[2-oxo-3-(3-oxo-4H-pyrazino[2,3-b][1,4]oxazin-6-yl)-1-oxa-3,8-diazaspiro[4.5]decan-8-yl]methyl]-6,7-dihydro-5H-cyclopenta[f]benzotriazol-2-yl]ethyl]pyrrolidine-2-carboxamide] and `CNCC(=O)NCCn1nc2c(F)c3c(c(F)c2n1)CC(CN1CCC2(CC1)CN(c1cnc4c(n1)NC(=O)CO4)C(=O)O2)C3` [Example 159, N-[2-[4,8-difluoro-6-[[2-oxo-3-(3-oxo-4H-pyrazino[2,3-b][1,4]oxazin-6-yl)-1-oxa-3,8-diazaspiro[4.5]decan-8-yl]methyl]-6,7-dihydro-5H-cyclopenta[f]benzotriazol-2-yl]ethyl]-2-(methylamino)acetamide] are the same in MIC: 0.25 µg/mL (≈ 0.383 µM) for the first, 0.25 µg/mL (≈ 0.399 µM) for the second.

same assay, conditions: strain Escherichia coli ATCC 25922, 18-24 hours at 35±2° C., lowest concentration for complete growth inhibition (no visible growth)

Compared with `N[C@H]1COC[C@@H]1c1nc2cc3c(c(F)c2o1)CC(CN1CCC2(CC1)CN(c1cnc4c(n1)NC(=O)CO4)C(=O)O2)C3` (stereo partly drawn) [Example 139, 6-[8-[[2-[(3R,4R)-4-Aminotetrahydrofuran-3-yl]-8-fluoro-6,7-dihydro-5H-cyclopenta[f][1,3]benzoxazol-6-yl]methyl]-2-oxo-1-oxa-3,8-diazaspiro[4.5]decan-3-yl]-4H-pyrazino[2,3-b][1,4]oxazin-3-one], `O=C1COc2ncc(N3CC4(CCN(CC5Cc6cc7nc([C@H]8CCN8)oc7c(F)c6C5)CC4)OC3=O)nc2N1` (stereo partly drawn) [Example 140, 6-[8-[[2-[(2R)-azetidin-2-yl]-8-fluoro-6,7-dihydro-5H-cyclopenta[f][1,3]benzoxazol-6-yl]methyl]-2-oxo-1-oxa-3,8-diazaspiro[4.5]decan-3-yl]-4H-pyrazino[2,3-b][1,4]oxazin-3-one] is 4-fold lower in “Escherichia coli growth inhibition MIC” value: 1 µg/mL for the first, 0.25 µg/mL for the second.

Going from `O=C1COc2ncc(N3CC4(CCN(CC5Cc6cc7nc([C@@H]8C[C@@H](O)CN8)oc7c(F)c6C5)CC4)OC3=O)nc2N1` (stereo partly drawn) [Example 142, 6-[8-[[8-Fluoro-2-[(2S,4R)-4-hydroxypyrrolidin-2-yl]-6,7-dihydro-5H-cyclopenta[f][1,3]benzoxazol-6-yl]methyl]-2-oxo-1-oxa-3,8-diazaspiro[4.5]decan-3-yl]-4H-pyrazino[2,3-b][1,4]oxazin-3-one] to `O=C1COc2ccc(N3CC4(CCN(CC5Cc6cc7nc([C@@H]8C[C@@H](O)CN8)oc7c(F)c6C5)CC4)OC3=O)nc2N1` (stereo partly drawn) [Example 148, 6-[8-[[8-Fluoro-2-[(2S,4R)-4-hydroxypyrrolidin-2-yl]-6,7-dihydro-5H-cyclopenta[f][1,3]benzoxazol-6-yl]methyl]-2-oxo-1-oxa-3,8-diazaspiro[4.5]decan-3-yl]-4H-pyrido[3,2-b][1,4]oxazin-3-one], the “Escherichia coli growth inhibition MIC” value rises from 0.5 µg/mL to 1 µg/mL (2-fold).

Going from `N[C@@H](CO)c1nc2cc3c(c(F)c2o1)CC(CN1CCC2(CC1)CN(c1cnc4c(n1)NC(=O)CO4)C(=O)O2)C3` (stereo partly drawn) [Example 144, 6-[8-[[2-[(1S)-1-Amino-2-hydroxy-ethyl]-8-fluoro-6,7-dihydro-5H-cyclopenta[f][1,3]benzoxazol-6-yl]methyl]-2-oxo-1-oxa-3,8-diazaspiro[4.5]decan-3-yl]-4H-pyrazino[2,3-b][1,4]oxazin-3-one] to `CN[C@@H](CO)c1nc2cc3c(c(F)c2o1)CC(CN1CCC2(CC1)CN(c1cnc4c(n1)NC(=O)CO4)C(=O)O2)C3` (stereo partly drawn) [Example 146, 6-[8-[[8-Fluoro-2-[(1S)-2-hydroxy-1-(methylamino)ethyl]-6,7-dihydro-5H-cyclopenta[f][1,3]benzoxazol-6-yl]methyl]-2-oxo-1-oxa-3,8-diazaspiro[4.5]decan-3-yl]-4H-pyrazino[2,3-b][1,4]oxazin-3-one], the “Escherichia coli growth inhibition MIC” value rises from 0.25 µg/mL to 0.5 µg/mL (2-fold).
